Here are results for one molecule from patent publication US20180064659A1, “AGENTS USEFUL FOR TREATING OBESITY, DIABETES AND RELATED DISORDERS” (The Regents of the University of California, priority 2015, published 2018).

This assay relates to corticosterone-treated mice. Put plainly: Corticosterone-treated mice: blood glucose and ITT. Type of assay: in vivo, mouse. The procedure: Mice were kept pathogen-free throughout the study. All experimental procedures were approved by the Institutional Animal Care and Use Committee (IACUC) and were performed in compliance with local, state, and federal regulations. Diet was LM-485 (Teklad 7012) with nutrient composition: protein=19.9%, carbohydrates=53.7%, fat=5.7%. The source of lipid was soybean oil, protein-soybean meal, energy source-ground oats. Group of 36 13-month old male and female mice were tested with ITT before the study began and were started on Corticosterone in drinking water at 100 mg/L. Body weight and blood glucose were monitored. FIG. 12A illustrates experimental flow. Mice were started on corticosterone at day 1 and continued on it through the study. At day 13 the group was randomly split 1:1 and half were given idebenone as a mixture with peanut butter daily, another half was given placebo daily for another 5 days. All mice continued receiving corticosterone in drinking water for these 5 days, and then ITT were performed. For insulin tolerance tests mice were fasted for six hours and given intra-peritoneal injection of insulin (0.2 U/kg); then blood glucose was measured in the indicated time course (FIG. 12D). FIG. 12B bars are body weights in grams. […] (FIG. 12D) ITT of Control, CS+placebo, and CS+idebenone groups. […] Error bars are standard deviations. *=p<0.05. […]

For `COC1=C(OC)C(=O)C(CCCCCCCCCCO)=C(C)C1=O` [idebenone], under “18th day, corticosterone 100 mg/L in drinking water, idebenone daily 5 days, versus placebo”, the Blood glucose level result was “significant decrease comparing to placebo group in blood glucose level”. For the same molecule, for the setting “40, 60, and 90 minutes after insulin 0.2 U/kg, versus corticosterone plus placebo”, the “Sensitivity to insulin in ITT” value is recorded as “significantly more sensitive to insulin than corticosterone plus placebo”.
